Measurements from patent US10780145B2, “In situ forming hydrogel and method using same” (Arizona Board of Regents on behalf of Arizona State …, priority 2011, dated 2020).

Legend:
[1] = Solubility of vancomycin loaded into the polymer solution; assay type: physicochemical; settings: loaded at 50 mg/mL
Procedure: To prepare a solution for antibiotic delivery, the materials can be sterilized (such as by ethylene oxide gas sterilization) and then dissolved in 150 mM phosphate buffered saline (pH 7.4). After dissolution of the polymer, drug powder (finely ground) is added directly to the polymer solution and vortex mixed to distribute the drug evenly throughout the solution. The solutions can be stored in a freezer until use and thawed at the time of use. The solution then can be injected, brushed, poured, sprayed, or otherwise administered as a liquid at the desired site. The solution can also be allowed to warm to above its initial LCST and then implanted as a soft hydrogel at the desired site. Examples of desired sites for delivery of this material might include the surface of a joint prosthesis, the intramedullary canal before implantation of a prosthesis, an infected area, or any location deemed to have a risk of future infection. An example formulation might be a 30 wt % polymer solution with approximately 50 mg vancomycin hydrochloride loaded per mL of polymer solution.
FIG. 7 graphically illustrates a fraction of loaded vancomycin released from Applicants' injectable and degradable terpolymer I based gels comprising poly(NIPAAm-co-DBLA-co-JAAm) gels loaded with either 50 mg or 5 mg per gel.

[2] = Swelling and degradation of gels in excess PBS (pH 7.4) at 37° C.; assay type: physicochemical
Excerpt: The control copolymer comprises […] of JAAm. […] These gels dissolve in approximately 20 weeks.
Gels flow when inverted after 7-10 days and dissolve completely within 2-3 weeks.

| Degradation time (37° C., pH 7.4) [2] | Compound | solubility in polymer solution [1] |
| --- | --- | --- |
| – | CN[C@H](CC(C)C)C(=O)N[C@H]1C(=O)N[C@@H](CC(N)=O)C(=O)N[C@H]2C(=O)N[C@H]3C(=O)N[C@H](C(=O)N[C@H](C(=O)O)c4cc(O)cc(O)c4-c4cc3ccc4O)[C@H](O)c3ccc(c(Cl)c3)Oc3cc2cc(c3O[C@@H]2O[C@H](CO)[C@@H](O)[C@H](O)[C@H]2O[C@H]2C[C@](C)(N)[C@H](O)[C@H](C)O2)Oc2ccc(cc2Cl)[C@H]1O [vancomycin] | Some vancomycin is insoluble |
| ~20 weeks | poly(NIPAAm-co-DBLA) | – |
